Data taken from patent publication US12577231B2, “Androgen receptor PROTACS” (GlaxoSmithKline Intellectual Property Development Limited, priority 2023, dated 2026).
Substitutions are numbered along the chain they refer to. Read-outs that look alike come from different tables or passages of the source.

Tests used:
[1] = target: T1, Androgen receptor H875Y (Homo sapiens, UniProt P10275, H875Y); assay: Degradation of overexpressed Androgen Receptor in A549 cells (HiBiT), H875Y; assay type: cell-based; settings: A549 cells overexpressing AR H875Y, cycloheximide, 24 hours
T1 construct: expressed in transfected cells; host or cells: A549, transduced, puromycin selected
T1 sequence (P10275 1-920 H875Y): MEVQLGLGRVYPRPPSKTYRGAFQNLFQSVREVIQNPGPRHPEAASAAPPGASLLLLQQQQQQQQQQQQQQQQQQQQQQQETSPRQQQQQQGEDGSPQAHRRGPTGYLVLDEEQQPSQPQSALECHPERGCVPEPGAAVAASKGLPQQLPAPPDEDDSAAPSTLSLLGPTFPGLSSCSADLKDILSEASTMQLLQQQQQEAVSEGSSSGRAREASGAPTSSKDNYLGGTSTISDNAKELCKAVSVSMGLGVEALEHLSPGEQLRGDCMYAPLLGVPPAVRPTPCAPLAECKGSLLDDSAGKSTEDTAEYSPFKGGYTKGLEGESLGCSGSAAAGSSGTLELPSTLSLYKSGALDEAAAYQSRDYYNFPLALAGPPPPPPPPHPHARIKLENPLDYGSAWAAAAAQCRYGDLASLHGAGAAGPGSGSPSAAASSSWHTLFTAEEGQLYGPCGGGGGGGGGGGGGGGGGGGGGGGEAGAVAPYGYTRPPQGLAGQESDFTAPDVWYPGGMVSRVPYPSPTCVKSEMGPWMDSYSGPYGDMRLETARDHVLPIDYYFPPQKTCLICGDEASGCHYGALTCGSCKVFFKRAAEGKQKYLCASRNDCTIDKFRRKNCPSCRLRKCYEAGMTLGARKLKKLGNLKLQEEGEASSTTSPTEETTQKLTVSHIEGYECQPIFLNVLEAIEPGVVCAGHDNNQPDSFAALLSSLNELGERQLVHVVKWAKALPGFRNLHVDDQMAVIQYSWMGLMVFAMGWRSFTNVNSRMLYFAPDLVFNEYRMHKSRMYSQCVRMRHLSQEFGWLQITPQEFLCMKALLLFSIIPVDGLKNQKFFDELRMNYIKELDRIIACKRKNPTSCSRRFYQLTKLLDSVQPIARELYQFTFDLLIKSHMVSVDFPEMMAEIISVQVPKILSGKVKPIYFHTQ
Description: (§1) A549 cells were transduced to express wild type androgen receptor and Androgen receptor containing the following mutations (L702H, H875Y W742C W742L F877L, T878A and T878A/H875Y) with HiBiT tags. Transduced cells following puromycin selection were maintained in a humidified incubator (at 37° C. and 5% CO2 in the DMEM medium supplemented with 1% (v/v) Pen/Strep, 1% (v/v) Glutamax and 10% (v/v) FBS. A549 cells expressing each AR construct were detached from plate and counted. Cell suspensions at density 0.2 million per mL were prepared. Cell suspension was supplemented with 100 μg/mL of cycloheximide to block protein synthesis. Cells were preincubated with cycloheximide for 1 hr before seeding. Cells were seeded onto 384-well plate at density of 5,000 in 25 μL per well. A two fold serial dilution of test compounds, starting from 1 μM (row A) in 2-fold serial dilution series across the column using Tecan D300e dispenser. […]
(§2) Nano-Glo HiBiT Lytic reagent was prepared by adding LgBiT protein and Nano-Glo® substrate to lytic buffer pre-equilibrated at room temperature following manufacturer protocol (https://www.promega.co.uk/resources/protocols/technical-manuals/101/nanoglo-luciferase-assay-system-protocol). […] The plates were then centrifuged (100×G, 1 min) and incubated on shaker for 10 mins before taking readings on Pherastar Luminescence microplate reader. […]

[2] = male, Wistar Han, rat, in vivo, po
Description: Systemic exposure of various forms of N-((1r,3r)-3-(4-cyano-3-methoxyphenoxy)-2,2,4,4-tetramethylcyclobutyl)-4-(4-((4-(4-(2,4-dioxotetrahydropyrimidin-1(2H)-yl)-1H-pyrazolo[4,3-c]pyridin-1-yl)piperidin-1-yl)methyl)piperidin-1-yl)-3-fluorobenzamide were assessed following oral administration of 30 mg/kg of a suspension formulation (1% methylcellulose (aq)) or following oral administration of 35 mg/kg of a suspension formulation (100% PEG400) in the male Wistar Han rat. […] The sampling period was 72 hours, and the data is reported in the attached table as mean±SD (n=3).

[3] = target: T2, Androgen receptor T878A/H875Y (Homo sapiens, UniProt P10275, H875Y/T878A); assay: Degradation of overexpressed Androgen Receptor in A549 cells (HiBiT), T878A/H875Y; assay type: cell-based; settings: A549 cells overexpressing AR T878A.H875Y, cycloheximide, 24 hours
T2 construct: expressed in transfected cells; host or cells: A549, transduced, puromycin selected
T2 sequence (P10275 1-920 H875Y/T878A): T1 sequence (P10275 1-920 H875Y) with T878A
Description: as §1, §2

## COc1cc(O[C@H]2C(C)(C)[C@H](NC(=O)c3ccc(N4CCC(CN5CCC(n6ncc7c(N8CCC(=O)NC8=O)nccc76)CC5)CC4)c(F)c3)C2(C)C)ccc1C#N [Example 20, N-((1r,3r)-3-(4-Cyano-3-methoxyphenoxy)-2,2,4,4-tetramethylcyclobutyl)-4-(4-((4-(4-(2,4-dioxotetrahydropyrimidin-1(2H)-yl)-1H-pyrazolo[4,3-c]pyridin-1-yl)piperidin-1-yl)methyl)piperidin-1-yl)-3-fluorobenzamide]
[1]
  Summary pXC50: 8.83
[2]; 30 mg/kg
  Dose Normalised AUC0-t: 240 ± 38 (ng · h/mL)/(mg/kg
[2]; 35 mg/kg
  Dose Normalised AUC0-t: 744 ± 66 (ng · h/mL)/(mg/kg
[3]
  Summary pXC50: 8.57
